In the RepoRT retention time repository one finds LC retention time data, which are given here for 79 molecules.

The series is described as follows: A: acetonitrile + 0.1% formic acid + 10 mM ammonium formate; B: 5% water + 95% acetonitrile + 0.1% formic acid + 10 mM ammonium formate; gradient (min/%B) 0/10 2/10 22/100 27/100 27.1/10. Particulars: stereoisomer not certain.

For the molecule `CN(C)CC(=O)O` [N,N-Dimethylglycine], the LC retention time was found to be 5.8 min. With `Cc1ncc(CO)c(CO)c1O` [Pyridoxine], the LC retention time was 1.92 min. For `COc1cccc(OC)c1C(=O)O` [2,6-Dimethoxybenzoic acid], the LC retention time was determined as 0.628 min. As to `CCOC(=O)CC(=O)OCC` [Diethyl malonate], the LC retention time stood at 0.43 min. On to `NCCOP(=O)(O)O` [O-Phosphorylethanolamine], for which the LC retention time was 7.28 min. Turning to `O=C(O)CCCCCCCC(=O)O` [Azelaic acid], the LC retention time came out at 0.604 min.

Turning to `O=C1OC2(c3ccccc31)c1cc(I)c(O)c(I)c1Oc1c2cc(I)c(O)c1I` [Erythrosine B], the LC retention time stood at 0.57 min. As for `CC(=O)O[C@H](CC(=O)[O-])C[N+](C)(C)C` [O-Acetyl-L-carnitine], the LC retention time is 5.88 min. As for `Nc1nc2c(ncn2C2CC(O)C(COP(=O)(O)O)O2)c(=O)[nH]1` (centres undefined) [2'-Deoxyguanosine 5'-monophosphate], the figure is 7.1 min. As for `NCCc1cnc[nH]1` [Histamine], the figure is 7.92 min; as for `Nc1ncnc2c1ncn2C1OC(COP(=O)(O)O)C(O)C1O` (centres undefined) [Adenosine-5'-monophosphate], 6.76 min. For `Cc1cc2nc3c(=O)[nH]c(=O)nc-3n(CC(O)C(O)C(O)CO)c2cc1C` (centres undefined) [Riboflavin], the LC retention time came out at 3.65 min. As for `C=C(C)C1Cc2c(ccc3c2OC2COc4cc(OC)c(OC)cc4C2C3=O)O1` (centres undefined) [Rotenone], the figure is 0.416 min.

With `CCC1C(=O)OCC1Cc1cncn1C` (centres undefined) [Pilocarpine], the LC retention time was determined as 1.22 min. As to `O=C(C=CC=Cc1ccc2c(c1)OCO2)N1CCCCC1` [Piperine], the LC retention time turned out to be 0.44 min.

For the molecule `C=CC1=C(C)C(=Cc2[nH]c(Cc3[nH]c(C=C4NC(=O)C(C)=C4C=C)c(C)c3CCC(=O)O)c(CCC(=O)O)c2C)NC1=O` [Bilirubin], the LC retention time was found to be 0.518 min. On to `CC(CCC(=O)NCC(=O)O)C1CCC2C3C(O)CC4CC(O)CCC4(C)C3CC(O)C12C` (centres undefined) [Glycocholic acid], for which the LC retention time worked out at 4.17 min.

Regarding `OCCN1CCN(CCCN2c3ccccc3Sc3ccc(Cl)cc32)CC1` [Perphenazine], the LC retention time was found to be 1.55 min. Consider `CC(=O)N[C@@H](C)C(=O)O` [N-Acetyl-L-alanine], for which the LC retention time came to 4.36 min.

For the molecule `CC(NC(C)(C)C)C(=O)c1cccc(Cl)c1` (centres undefined) [Bupropion], the LC retention time is 0.963 min. Turning to `CC1=C(CC(=O)O)c2cc(F)ccc2C1=Cc1ccc(S(C)=O)cc1` (centres undefined) [Sulindac], the LC retention time was 0.56 min. Next, `N[C@@H](CCSSCC[C@H](N)C(=O)O)C(=O)O` [L-Homocystine]: 7.57 min; `CC(=O)NCCCCNCCCN` [N8-Acetylspermidine]: 7.25 min; `NC(=O)c1ccc[n+](C2OC(COP(=O)(O)OP(=O)([O-])OCC3OC(n4cnc5c(N)ncnc54)C(O)C3O)C(O)C2O)c1` (centres undefined) [NAD]: 7.82 min. Turning to `C=C1CC23CCC4C(C)(C(=O)OC5OC(CO)C(O)C(O)C5O)CCCC4(C)C2CCC1(OC1OC(CO)C(O)C(O)C1OC1OC(CO)C(O)C(O)C1O)C3` (centres undefined) [Stevioside], the LC retention time stood at 4.85 min. As to `COc1ccc(OC)c(C(O)C(C)N)c1` (centres undefined) [Methoxamine], the LC retention time was determined as 2.4 min. Next, `CCC(=C(c1ccccc1)c1ccc(OCCN(C)C)cc1)c1ccccc1` [Tamoxifen]: 0.887 min; `NC[C@@H](O)CC(=O)O` [(S)-(+)-4-Amino-3-hydroxybutyric acid]: 6.5 min. For `Cc1cn(C2CC(O)C(CO)O2)c(=O)[nH]c1=O` (centres undefined) [Thymidine], the LC retention time amounted to 1.04 min.

Take `CC1OC(OCC2OC(Oc3c(-c4ccc(O)c(O)c4)oc4cc(O)cc(O)c4c3=O)C(O)C(O)C2O)C(O)C(O)C1O` (centres undefined) [Rutin]: the LC retention time turned out to be 4.42 min. As to `CC(C)(N)C(=O)O` [2-Aminoisobutyric acid], the LC retention time amounted to 5.89 min. Turning to `C[N+](C)(C)C[C@H](O)CC(=O)[O-]` [L-Carnitine], the LC retention time is 6.22 min. In the case of `Nc1nc2nc[nH]c2c(=O)[nH]1` [Guanine], the LC retention time was found to be 3.98 min. Consider `Nc1nc2c(ncn2C2OC(COP(=O)(O)OP(=O)(O)O)C(O)C2O)c(=O)[nH]1` (centres undefined) [Guanosine 5'-diphosphate], for which the LC retention time turned out to be 9.21 min. As for `CCN(Cc1ccncc1)C(=O)C(CO)c1ccccc1` (centres undefined) [Tropicamide], the figure is 0.641 min; as for `CC(CCC(=O)NCCS(=O)(=O)O)C1CCC2C3CCC4CC(O)CCC4(C)C3CC(O)C12C` (centres undefined) [Taurodeoxycholic acid], 2.71 min. As for `Nc1nc2c(c(=O)[nH]1)N(C=O)C(CNc1ccc(C(=O)NC(CCC(=O)O)C(=O)O)cc1)CN2` (centres undefined) [Folinic acid], the LC retention time was found to be 5.94 min. As for `CC(C)CCCC(C)C1CCC2C3CCC4=CC(=O)CCC4(C)C3CCC12C` (single isomer, unassigned; (+)) [(+)-4-Cholesten-3-one], the LC retention time is 0.407 min. With `CC(=O)NCCCC(=O)O` [4-(Acetylamino)butanoic acid], the LC retention time was found to be 1.23 min.

For the molecule `Cc1cnc(=O)[nH]c1N` [5-Methylcytosine], the LC retention time came out at 3.15 min. Turning to `Nc1ccn(C2OC(COP(=O)(O)OP(=O)(O)OP(=O)(O)O)C(O)C2O)c(=O)n1` (centres undefined) [Cytidine 5'-triphosphate], the LC retention time was determined as 10.1 min. As to `Nc1nc(N)c2nc(-c3ccccc3)c(N)nc2n1` [Triamterene], the LC retention time is 2.5 min. Next, `COc1ccc2[nH]cc(CCN)c2c1` [5-Methoxytryptamine]: 2.21 min; `COc1ccc2[nH]cc(CCNC(C)=O)c2c1` [Melatonin]: 0.468 min. As for `CCC(=O)OCC(=O)C1(OC(=O)CC)C(C)CC2C3CCC4=CC(=O)C=CC4(C)C3(Cl)C(O)CC21C` (centres undefined) [Beclometasone dipropionate], the LC retention time was 0.416 min. `CN[C@H](CC(=O)O)C(=O)O` [N-Methyl-D-aspartic acid]: the LC retention time amounted to 7.02 min.

With `CN(C)CCC=C1c2ccccc2CCc2ccccc21` [Amitriptyline], the LC retention time turned out to be 0.977 min. Turning to `NC(=O)c1ncn(C2OC(CO)C(O)C2O)c1N` [5-Aminoimidazole-4-carboxamide-1-beta-D-ribofuranoside], the LC retention time was determined as 3.02 min. Turning to `N[C@@H](Cc1ccc(O)c(O)c1)C(=O)O` [L-Dopa], the LC retention time amounted to 6.06 min.

`O=C(O)C(=O)Cc1c[nH]c2ccccc12` [Indole-3-pyruvic acid]: the LC retention time stood at 0.455 min.

For `C[n+]1cccc(C(=N)[O-])c1` [1-Methylnicotinamide], the LC retention time worked out at 4.68 min.

For `O=C(O)c1c[nH]c2ccccc12` [Indole-3-carboxylic acid], the LC retention time was 0.506 min.

For `Cn1cnc(=N)c2[nH]cnc21` [3-Methyladenine], the LC retention time came to 2.75 min. In the case of `CC(=O)NCC(=O)O` [N-Acetylglycine], the LC retention time came out at 5.64 min. Take `NC(N)=NCC(=O)O` [Guanidoacetic acid]: the LC retention time amounted to 6.12 min.

In the case of `NC(=O)CCC(NC(=O)Cc1ccccc1)C(=O)O` (centres undefined) [Phenyl-Ac-Gln-OH], the LC retention time is 3.83 min. As for `COc1cc(C=O)ccc1O` [Vanillin], the figure is 0.435 min. `Cc1occc(=O)c1O` [3-Hydroxy-2-methyl-4-pyrone]: the LC retention time was found to be 0.613 min. Take `Cc1ccnc2c1NC(=O)c1cccnc1N2C1CC1` [Nevirapine]: the LC retention time was found to be 0.596 min. Next, `O=C(O)CNC(=O)c1ccccc1` [Hippuric acid]: 1.59 min. As for `Nc1nc2[nH]c(=O)cnc2c(=O)[nH]1` [Isoxanthopterin], the figure is 4.02 min. For the molecule `CCOC(=O)C1=CC(OC(CC)CC)C(NC(C)=O)C(N)C1` (centres undefined) [Oseltamivir], the LC retention time is 2.47 min.

As for `CCC=CCC1C(=O)CCC1CC(=O)OC` (mixture of isomers) [Methyl Jasmonate (mixture of isomers)], the LC retention time came out at 0.421 min.

Take `CCCCNC(=O)NS(=O)(=O)c1ccc(C)cc1` [Tolbutamide]: the LC retention time stood at 0.432 min. Consider `COc1ccc(CC(=O)O)cc1OC` [3,4-Dimethoxyphenylacetic acid], for which the LC retention time was determined as 0.554 min.

Turning to `NC(=O)C(N)Cc1c[nH]c2ccccc12` (centres undefined) [H-Trp-NH2], the LC retention time stood at 3.39 min. As for `NC(=O)c1ncn(C2OC(CO)C(O)C2O)n1` (centres undefined) [Ribavirin], the figure is 3.11 min.

With `O=P(O)(O)OC(CO)CO` [beta-Glycerophosphoric acid], the LC retention time amounted to 6.56 min. For the molecule `Nc1ccn(C2CC(O)C(CO)O2)c(=O)n1` (centres undefined) [2'-Deoxycytidine], the LC retention time was 3.51 min. Take `COC(=O)Cc1c[nH]c2ccccc12` [Methyl 3-indolyacetate]: the LC retention time is 0.431 min.

Turning to `COc1cc(O)cc(OC)c1` [3,5-Dimethoxyphenol], the LC retention time came to 0.433 min. As for `Cn1cncc1CC(NC(=O)CCN)C(=O)O` [L-Anserine], the figure is 7.92 min; as for `CN(C)CCCN1c2ccccc2Sc2ccc(Cl)cc21` [Chlorpromazine], 1 min. For the molecule `Cc1cccc(Nc2ccccc2C(=O)O)c1C` [Mefenamic acid], the LC retention time amounted to 0.437 min. For the molecule `CCN(CC)CC#CCOC(=O)C(O)(c1ccccc1)C1CCCCC1` (centres undefined) [Oxybutynin], the LC retention time came to 0.847 min. Take `OCC1OC(OC2C(CO)OC(O)(CO)C2O)C(O)C(O)C1O` (centres undefined) [Lactulose]: the LC retention time was determined as 6.6 min. Consider `Cc1c(OCC(F)(F)F)ccnc1CS(=O)c1nc2ccccc2[nH]1` (centres undefined) [Lansoprazole], for which the LC retention time was found to be 0.475 min.

For `NC(CCCC(N)C(=O)O)C(=O)O` (centres undefined) [2,6-Diaminopimelic Acid], the LC retention time amounted to 8.06 min. Consider `CC(=O)NCCc1c[nH]c2ccc(O)cc12` [N-Acetyl-5-hydroxytryptamine], for which the LC retention time was found to be 0.492 min.
